{"source": "patent US20010023254A1", "about": "“Use of sulfamate derivatives for treating impulse control disorders” (priority 2000, published 2001)", "key": {"[1]": {"system": "Patients with Binge Eating Disorder (BED)", "experiment": "Patients with Binge Eating Disorder (BED) treated clinically with open-label topiramate", "format": "in vivo, human", "method": "(§1) In the examples, patients were treated with open-label topiramate starting at 25 mg/qHS and the dosage increased by the patient in 25 mg increments as tolerated by the subjects until a response is seen up to a maximum of 1200 mg. [table]"}, "[2]": {"system": "Patients with Overeating, Overweight, and Obesity", "experiment": "Patients with overeating, overweight and obesity treated clinically with topiramate", "format": "in vivo, human", "method": "as §1"}, "[3]": {"system": "patients who coincidentally had binge eating disorder", "experiment": "Clinical studies of topiramate in mood disorders; patients who coincidentally had binge eating disorder", "format": "in vivo, human", "settings": "several mood disorder patients with coincident binge eating disorder", "description": "The activity of the compounds of formula I in treating ICD's was first evidenced in clinical studies conducted to evaluate the efficacy of topiramate in treating mood disorders."}, "[4]": {"system": "patients with epilepsy", "settings": "cited from earlier work"}, "[5]": {"system": "Persons with bulimia nervosa", "settings": "cited from earlier work"}, "[6]": {"settings": "Pt 5, first trial, max dose 100 mg/day"}, "[7]": {"settings": "Pt 5, second trial, max dose 100 mg/day"}, "[8]": {"settings": "Pt 5, first trial, max dose 250 mg/day"}, "[9]": {"settings": "Pt 5, second trial, max dose 200 mg/day"}}, "note": "“Also recorded” adds a separate entry of the source."}
{"molecule": "CC1(C)O[C@@H]2[C@@H](CO[C@@]3(COS(N)(=O)=O)OC(C)(C)O[C@@H]23)O1", "note": "[Topiramate, 2,3;4,5-bis-O-(1-methylethylidene)-beta -D-fructopyranose sulfamate]", "values": [{"measurement": "Loss of weight", "setting": "[1]; Pt 1, max dose 1200 mg/day", "result": "Loss of 107 lbs."}, {"measurement": "Response of BD (Bipolar Disorder)", "setting": "[1]; Pt 1, max dose 1200 mg/day", "result": "Remission of BD"}, {"measurement": "Response of BED (Binge Eating Disorder)", "setting": "[1]; Pt 1, max dose 1200 mg/day", "result": "Remission of BED"}, {"measurement": "Discontinuation and its reason (adverse effects)", "setting": "[1]; Pt 2, max dose 150 mg/day", "result": "Discontinued due to sedation,; also recorded: cognitive dulling"}, {"measurement": "Loss of weight", "setting": "[1]; Pt 2, max dose 150 mg/day", "result": "Loss of 5 lbs."}, {"measurement": "Response of BD (Bipolar Disorder)", "setting": "[1]; Pt 2, max dose 150 mg/day", "result": "Mild improvement of BD,"}, {"measurement": "Response of BED (Binge Eating Disorder)", "setting": "[1]; Pt 2, max dose 150 mg/day", "result": "Moderate decrease of BED,"}, {"measurement": "Loss of weight", "setting": "[1]; Pt 3, max dose 1200 mg/day", "result": "Loss of 50.5 lbs"}, {"measurement": "Response of BD (Bipolar Disorder)", "setting": "[1]; Pt 3, max dose 1200 mg/day", "result": "Moderate improvement of BD."}, {"measurement": "Response of BED (Binge Eating Disorder)", "setting": "[1]; Pt 3, max dose 1200 mg/day", "result": "Remission of BED"}, {"measurement": "Loss of weight", "setting": "[1]; Pt 4, max dose 900 mg/day", "result": "Loss of 30.5 lbs."}, {"measurement": "Response of BD (Bipolar Disorder)", "setting": "[1]; Pt 4, max dose 900 mg/day", "result": "Moderate improvement of BD,"}, {"measurement": "Response of BED (Binge Eating Disorder)", "setting": "[1]; Pt 4, max dose 900 mg/day", "result": "Marked improvement of BED,"}, {"measurement": "Discontinuation and its reason (adverse effects)", "setting": "[1]; [6]", "result": "discontinued due to GI distress"}, {"measurement": "Response of BED (Binge Eating Disorder)", "setting": "[1]; [6]", "result": "First trial: No response of BED,"}, {"measurement": "Loss of weight", "setting": "[1]; [7]", "result": "Loss of 11 lbs."}, {"measurement": "Response of BED (Binge Eating Disorder)", "setting": "[1]; [7]", "result": "Remission of BED"}, {"measurement": "Response of Compulsive Buying", "setting": "[1]; [7]", "result": "Remission of Compulsive"}, {"measurement": "Response of BD (Bipolar Disorder)", "setting": "[1]; Pt 5, second trial, max dose 100 mg/day, BD in remission at start", "result": "Second Trial: Worsening of BD"}, {"measurement": "Response of BED (Binge Eating Disorder)", "setting": "[1]; Pt 6, max dose 100 mg/day", "result": "No response of BED"}, {"measurement": "Weight change", "setting": "[1]; Pt 6, max dose 100 mg/day", "result": "No weight change"}, {"measurement": "Loss of weight", "setting": "[2]; Pt 1, max dose 700 mg/day", "result": 9, "unit": "lbs"}, {"measurement": "Response of BD (Bipolar Disorder)", "setting": "[2]; Pt 1, max dose 700 mg/day", "result": "No response of BD"}, {"measurement": "Loss of weight", "setting": "[2]; Pt 2, max dose 300 mg/day", "result": 16, "unit": "lbs"}, {"measurement": "Response of BD (Bipolar Disorder)", "setting": "[2]; Pt 2, max dose 300 mg/day", "result": "Remission of BD"}, {"measurement": "Response of overeating", "setting": "[2]; Pt 2, max dose 300 mg/day", "result": "Remission of overeating"}, {"measurement": "Loss of weight", "setting": "[2]; Pt 3 ADJ, max dose 400 mg/day", "result": 7, "unit": "lbs"}, {"measurement": "Response of BD (Bipolar Disorder)", "setting": "[2]; Pt 3 ADJ, max dose 400 mg/day", "result": "Moderate improvement of BD"}, {"measurement": "Response of overeating", "setting": "[2]; Pt 3 ADJ, max dose 400 mg/day", "result": "Moderate improvement of overeating"}, {"measurement": "Loss of weight", "setting": "[2]; Pt 4, max dose 350 mg/day", "result": 5, "unit": "lbs"}, {"measurement": "Response of BD (Bipolar Disorder)", "setting": "[2]; Pt 4, max dose 350 mg/day", "result": "No response of BD"}, {"measurement": "Response of overeating", "setting": "[2]; Pt 4, max dose 350 mg/day", "result": "Mild improvement in overeating"}, {"measurement": "Loss of weight", "setting": "[2]; [8]", "result": 7, "unit": "lbs"}, {"measurement": "Response of BD (Bipolar Disorder)", "setting": "[2]; [8]", "result": "First Trial: Worsening of BD"}, {"measurement": "Response of overeating", "setting": "[2]; [8]", "result": "Mild decrease of overeating"}, {"measurement": "Body weight, before-after", "setting": "[2]; [9]", "result": "154-155 lbs"}, {"measurement": "Gain of weight", "setting": "[2]; [9]", "result": 1, "unit": "lb"}, {"measurement": "Response of overeating", "setting": "[2]; [9]", "result": "Mild decrease of overeating"}, {"measurement": "Loss of weight", "setting": "[2]; Pt 6, max dose 800 mg/day", "result": 9, "unit": "lbs"}, {"measurement": "Response of BD (Bipolar Disorder)", "setting": "[2]; Pt 6, max dose 800 mg/day, BD in remission at start", "result": "Worsening of BD"}, {"measurement": "Discontinuation and its reason (adverse effects)", "setting": "[2]; Pt 7 NLR, max dose 300 mg/day", "result": "Discontinued due to anorexia"}, {"measurement": "Loss of weight", "setting": "[2]; Pt 7 NLR, max dose 300 mg/day", "result": 46, "unit": "lbs"}, {"measurement": "Response of BD (Bipolar Disorder)", "setting": "[2]; Pt 7 NLR, max dose 300 mg/day", "result": "Worsening of BD"}, {"measurement": "Loss of weight", "setting": "[2]; Pt 8 PR, max dose 700 mg/day", "result": 19, "unit": "lbs"}, {"measurement": "Reason for discontinuation (adverse effects)", "setting": "[2]; Pt 8 PR, max dose 700 mg/day", "result": "G.I. Distress"}, {"measurement": "Response of BD (Bipolar Disorder)", "setting": "[2]; Pt 8 PR, max dose 700 mg/day", "result": "Moderate improvement of BD"}, {"measurement": "Response of overeating", "setting": "[2]; Pt 8 PR, max dose 700 mg/day", "result": "Marked improvement in overeating"}, {"measurement": "Binging, as reported by patients", "setting": "[3]", "result": "marked reduction in their binging"}, {"measurement": "Weight, as reported by patients", "setting": "[3]", "result": "concurrent loss in weight"}, {"measurement": "Efficacy in simple and complex partial seizures and secondarily generalized seizures", "setting": "[4]; clinical trials of human epilepsy, adjunctive therapy or monotherapy", "result": "effective"}, {"measurement": "Effect on appetite", "setting": "[4]; controlled trials in patients with epilepsy", "result": "suppression of appetite"}, {"measurement": "Effect on weight", "setting": "[4]; controlled trials in patients with epilepsy, unrelated to binge eating", "result": "weight loss"}]}
{"molecule": "O=C1NC(=O)C(c2ccccc2)(c2ccccc2)N1", "note": "[phenytoin]", "values": [{"measurement": "Binge eating", "setting": "[5]", "result": "reduced binge eating"}]}
